Results reported in PMC11110727, “Exploiting thiol-functionalized benzosiloxaboroles for achieving diverse substitution patterns – synthesis, characterization and biological evaluation of promising antibacterial agents” (RSC Medicinal Chemistry, 2024).
≈ marks a conversion by molar mass, not a printed value.

Key:
E. faecium ATCC 6057 = assay: Antibacterial activity: MIC/MBC determination and disc-diffusion; assay type: cell-based; conditions: Enterococcus faecium, ATCC6057; E. faecium ATCC 6057; read-out: MIC
Experimental: (§1) Direct antimicrobial activity was determined against the following standard strains: (1) Gram-positive cocci: methicillin-sensitive Staphylococcus aureus ATCC 6538P (MSSA), methicillin-resistant S. aureus subsp. aureus ATCC 43300 (MRSA), S. epidermidis ATCC 12228, Enterococcus faecium ATCC 6057, E. faecalis ATCC 29212, Bacillus subtilis ATCC 6633; (2) Gram-negative bacteria from Enterobacteriales order: Klebsiella pneumoniae ATCC 13883, Escherichia coli ATCC 25922, Enterobacter cloacae DSM 6234, Proteus mirabilis ATCC 12453, Serratia marcescens ATCC 13880; (3) Gram-negative non-fermentative rods: Acinetobacter baumannii ATCC 19606, Pseudomonas aeruginosa ATCC 27853, Stenotrophomonas maltophilia ATCC 12714, S. maltophilia ATCC 13637, Burkholderia cepacia ATCC 25416, Bordetella bronchiseptica ATCC 4617; (4) yeasts: Candida albicans ATCC 90028, C. krusei ATCC 6258, C. parapsilosis ATCC 22019, C. tropicalis (Castellani) Berkhout ATCC 750, C. tropicalis IBA 171, C. guilliermondii IBA 155, and Saccharomyces cerevisiae ATCC 9763. Moreover, 5 clinical strains of methicillin-resistant S. aureus were also included: NMI 664 K, NMI 1576 K, NMI 1712 K, NMI 1991 K, and NMI 2541 K. All strains were stored at −80 °C. Prior to testing, each bacterial strain was subcultured twice on tryptic soy agar TSA (bioMerieux) medium and yeast strains on Sabouraud dextrose agar (bioMerieux) for 24–48 h at 30 °C to ensure viability. The antimicrobial activity was evaluated as previously described[26] by the disc-diffusion method and the MIC determination assays according to the EUCAST (ref. [71] and [72]) and CLSI (ref. [53] and [73]) recommendations. Assessment of bactericidal (MBC) and fungicidal (MFC) activities was performed according to the CLSI recommendations.[54,74] The following reference agents were used: fluconazole (in the case of fungi), linezolid (for Gram-positive bacteria), and nitrofurantoin (for Gram-negative rods). The new benzosiloxaboroles were dissolved in DMSO (Sigma).

[1] = tested on: S. aureus ATCC 43300 MRSA; assay: as above; assay type: cell-based; conditions: Staphylococcus aureus, S. aureus ATCC 43300 MRSA; for MIC: read-out: MIC
Experimental: as §1

E. coli ATCC 25922 = assay: Antibacterial activity: MIC/MBC, MIC with PAβN, disc-diffusion; assay type: cell-based, Escherichia coli; conditions: E. coli ATCC 25922; for MIC: Escherichia coli, ATCC25922, read-out: MIC; for -fold reduction of MIC in the presence of PAβN: PAβN 20 μg mL^−1, MHB + 1 mM MgSO4
Experimental: as §1, with “The following reference agents were used: fluconazole (in the case of fungi), linezolid (for Gram-positive bacteria), and nitrofurantoin (for Gram-negative rods).” left out
(§2) Considering that the MDR efflux pumps often contribute to Gram-negative rod resistance, the MIC values of studied agents, with or without the pump inhibitor, PAβN (20 μg mL^−1) (Sigma), were determined.[75] The MIC was determined using Mueller–Hinton II broth medium (MHB) (Becton Dickinson) by the broth microdilution method, according to the CLSI guideliness.[53] To minimize the influence of PAβN on the destabilization of bacterial cell covers, the tests were conducted in the presence of 1 mM MgSO4 (Sigma).[76] At least a 4-fold reduction in the MIC value after the addition of PAβN was considered significant.[56,77]

E. cloacae DSM 6234 = assay: as above; assay type: cell-based, Enterobacter cloacae; conditions: Enterobacter cloacae, DSM6234; E. cloacae DSM 6234; read-out: MIC
Experimental: as §1, with “The following reference agents were used: fluconazole (in the case of fungi), linezolid (for Gram-positive bacteria), and nitrofurantoin (for Gram-negative rods).” left out
as §2

[2] = tested on: S. maltophilia ATCC 12714; assay: as above; assay type: cell-based, Stenotrophomonas maltophilia; conditions: Stenotrophomonas maltophilia, ATCC12714; S. maltophilia ATCC 12714; read-out: MIC
Experimental: as §1, with “The following reference agents were used: fluconazole (in the case of fungi), linezolid (for Gram-positive bacteria), and nitrofurantoin (for Gram-negative rods).” left out
as §2

[3] = tested on: S. maltophilia ATCC 13637; assay: as above; assay type: cell-based, Stenotrophomonas maltophilia; conditions: S. maltophilia ATCC 13637; for MIC: Stenotrophomonas maltophilia, ATCC13637, read-out: MIC
Experimental: as §1, with “The following reference agents were used: fluconazole (in the case of fungi), linezolid (for Gram-positive bacteria), and nitrofurantoin (for Gram-negative rods).” left out
as §2

B. cepacia ATCC 25416 = assay: Antibacterial activity: MIC/MBC, disc-diffusion; assay type: cell-based, Burkholderia cepacia; conditions: Burkholderia cepacia, ATCC25416; B. cepacia ATCC 25416; read-out: MIC
Experimental: as §1, with “The following reference agents were used: fluconazole (in the case of fungi), linezolid (for Gram-positive bacteria), and nitrofurantoin (for Gram-negative rods).” left out
as §2

[4] = tested on: B. bronchiseptica ATCC 4617; assay: Antibacterial activity: MIC/MBC, disc-diffusion; assay type: cell-based, Bordetella bronchiseptica; conditions: Bordetella bronchiseptica, ATCC4617; B. bronchiseptica ATCC 4617; read-out: MIC
Experimental: as §1, with “The following reference agents were used: fluconazole (in the case of fungi), linezolid (for Gram-positive bacteria), and nitrofurantoin (for Gram-negative rods).” left out
as §2

C. krusei ATCC 6258 = assay: Antifungal activity: MIC/MFC, disc-diffusion; assay type: cell-based; conditions: Pichia kudriavzevii, ATCC6258; read-out: MIC
Experimental: as §1, with “The following reference agents were used: fluconazole (in the case of fungi), linezolid (for Gram-positive bacteria), and nitrofurantoin (for Gram-negative rods).” left out

S. cerevisiae ATCC 9763 = assay: Antifungal activity: MIC/MFC, disc-diffusion; assay type: cell-based, Saccharomyces cerevisiae; conditions: Saccharomyces cerevisiae, ATCC9763; read-out: MIC
Experimental: as §1

Row | SMILES | MIC (E. faecium ATCC 6057) [µg/mL] | MIC [1] [µg/mL] | MIC (E. coli ATCC 25922) [µg/mL] | MIC (E. cloacae DSM 6234) [µg/mL] | MIC [2] [µg/mL] | MIC [3] [µg/mL] | MIC (B. cepacia ATCC 25416) [µg/mL] | MIC [4] [µg/mL] | MIC (C. krusei ATCC 6258) [µg/mL] | MIC (S. cerevisiae ATCC 9763) [µg/mL] | MBC ([1]; read-out: MBC (first MBC where Eagle effect)) [µg/mL] | -fold reduction of MIC in the presence of PAβN (E. coli ATCC 25922) | -fold reduction of MIC in the presence of PAβN ([3]; PAβN 20 μg mL^−1, MHB + 1 mM MgSO4)
1 | C[Si]1(C)OB(O)c2cc(F)c(SCCC(=O)ON3C(=O)CCC3=O)c(F)c21 [Compound 5, 2,5-Dioxopyrrolidin-1-yl 3-((5,7-difluoro-3-hydroxy-1,1-dimethyl-1,3-dihydrobenzo-[c][1,2,5]oxasilaborol-6-yl)thio)propanoate] | 400 (≈ 963 µM) | 400 (≈ 963 µM) | > 400 | > 400 | > 400 | > 400 | > 400 | > 400 | > 400 | > 400 | – | – | –
2 | C[Si]1(C)OB(O)c2cc(F)c(SCCC#N)c(F)c21 [Compound 6, 3-((5,7-Difluoro-3-hydroxy-1,1-dimethyl-1,3-dihydrobenzo[c][1,2,5]oxasilaborol-6-yl)thio)propanenitrile] | 400 (≈ 1340 µM) | 12.5 (≈ 41.8 µM) | > 400 | > 400 | > 400 | > 400 | > 400 | > 400 | > 400 | > 400 | > 400 | 2 -fold | 2 -fold
3 | C[Si]1(C)OB(O)c2cc(F)c(SCCC(N)=O)c(F)c21 [Compound 7, 3-((5,7-Difluoro-3-hydroxy-1,1-dimethyl-1,3-dihydrobenzo[c][1,2,5]oxasilaborol-6-yl)thio)propanamide] | 200 (≈ 631 µM) | 100 (≈ 315 µM) | > 400 | > 400 | > 400 | > 400 | > 400 | > 400 | > 400 | > 400 | – | 4 -fold | –
4 | C[Si]1(C)OB(O)c2cc(F)c(SCCC(=O)N3CCOCC3)c(F)c21 [Compound 8, 3-((5,7-Difluoro-3-hydroxy-1,1-dimethyl-1,3-dihydrobenzo[c][1,2,5]oxasilaborol-6-yl)thio)-1-morpholinopropan-1-one] | 200 (≈ 516 µM) | 50 (≈ 129 µM) | > 400 | > 400 | > 400 | > 400 | > 400 | > 400 | > 400 | > 400 | – | – | –
5 | C[Si]1(C)OB(O)c2cc(F)c(S(=O)(=O)N3CCOCC3)c(F)c21 [Compound 29, 5,7-Difluoro-1,1-dimethyl-6-(morpholinosulfonyl)benzo[c][1,2,5]oxasilaborol-3(1H)-ol] | 400 (≈ 1100 µM) | 400 (≈ 1100 µM) | > 400 | > 400 | > 400 | > 400 | > 400 | > 400 | – | – | – | 2 -fold | –
